ChEMBL document CHEMBL1201862, “PubChem BioAssay data set” (2004)
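48-hour exposure; five concentrations; linearly interpolated endpoints. GI50 = concentration required for 50% inhibition of growth.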 Active and inactive are the calls of the source. No stated cut-off is given here; in the data, active = GI50 up to about 1.1 µM and inactive = higher. Peptide text beside a SMILES is read from it. * marks the point of attachment. Boc = CC(C)(C)OC(=O)*

Tests used:
Assay in all cases: growth of human tumour cells (NCI), 48 h
A549 = test system: A549
CAKI-1 = test system: CAKI-1
COLO 205 = test system: COLO 205
HCC 2998 = test system: HCC 2998
HCT-116 = test system: HCT-116
HL-60 = test system: HL-60
HT-29 = test system: HT-29
KM12 = test system: KM12
M14 = test system: M14
MDA-MB-231 = test system: MDA-MB-231
MOLT-4 = test system: MOLT-4
Malme-3M = test system: Malme-3M
NCI-H522 = test system: NCI-H522
OVCAR-5 = test system: OVCAR-5
SK-MEL-2 = test system: SK-MEL-2
SK-MEL-5 = test system: SK-MEL-5
SN12C = test system: SN12C
SNB-75 = test system: SNB-75
TK-10 = test system: TK-10
UACC-257 = test system: UACC-257

Compound	GI50 (A549)	GI50 (CAKI-1)	GI50 (COLO 205)	GI50 (HCC 2998)	GI50 (HCT-116)	GI50 (HL-60)	GI50 (HT-29)	GI50 (KM12)	GI50 (M14)	GI50 (MDA-MB-231)	GI50 (MOLT-4)	GI50 (Malme-3M)	GI50 (NCI-H522)	GI50 (OVCAR-5)	GI50 (SK-MEL-2)	GI50 (SK-MEL-5)	GI50 (SN12C)	GI50 (SNB-75)	GI50 (TK-10)	GI50 (UACC-257)
CC(NC(=O)OC(C)(C)C)C(=O)NC(Cc1ccccc1)C(=O)NCC(=O)O (stereo not drawn) (Boc-Ala-Phe-Gly-OH; configuration not given here)	> 100 µM (inactive)	> 100 µM (inactive)	> 100 µM (inactive)	> 100 µM (inactive)	> 100 µM (inactive)	> 100 µM (inactive)	> 100 µM (inactive)	> 100 µM (inactive)	> 100 µM (inactive)	> 100 µM (inactive)	> 100 µM (inactive)	> 100 µM (inactive)	> 100 µM (inactive)	> 100 µM (inactive)	> 100 µM (inactive)	> 100 µM (inactive)	> 100 µM (inactive)	> 100 µM (inactive)	> 100 µM (inactive)	> 100 µM (inactive)
NC(=O)C(=CNC(=S)Nc1ccc(Cl)c(Cl)c1)C(N)=O	> 100 µM (inactive)	59.4 µM (inactive)	42.8 µM (inactive)	26.8 µM (inactive)	> 78.2 µM (inactive)	> 60.1 µM (inactive)	46.3 µM (inactive)	55.1 µM (inactive)	> 100 µM (inactive)	> 100 µM (inactive)	48.3 µM (inactive)	> 100 µM (inactive)	17.5 µM (inactive)	> 100 µM (inactive)	> 81.3 µM (inactive)	42.3 µM (inactive)	> 100 µM (inactive)	> 59.6 µM (inactive)	> 77.8 µM (inactive)	> 100 µM (inactive)
CC(=O)Nc1ccc2c3c(cc(O)c2c1)N(C(=O)CCCCC(=O)Nc1ccc2c4c(cc(O)c2c1)N(C(=O)OC(C)(C)C)CC4CCl)CC3CCl (stereo not given)	7.62 µM (inactive)	17.4 µM (inactive)	1.82 µM (inactive)	1.66 µM (inactive)	2.22 µM (inactive)	0.42 µM (active)	2.82 µM (inactive)	2.79 µM (inactive)	3.27 µM (inactive)	3.8 µM (inactive)	0.302 µM (active)	1.39 µM (inactive)	0.74 µM (active)	3.29 µM (inactive)	1.75 µM (inactive)	1.54 µM (inactive)	2.38 µM (inactive)	1.82 µM (inactive)	10.4 µM (inactive)	2.26 µM (inactive)
O=[N+]([O-])c1ccccc1S(=O)(=O)c1cc(O)cc2c1NCCC2	29.8 µM (inactive)	35.2 µM (inactive)	17.1 µM (inactive)	25.5 µM (inactive)	5.78 µM (inactive)	3.47 µM (inactive)	13.3 µM (inactive)	18.7 µM (inactive)	17 µM (inactive)	18.2 µM (inactive)	4.23 µM (inactive)	17.4 µM (inactive)	7.5 µM (inactive)	23 µM (inactive)	23.7 µM (inactive)	13.9 µM (inactive)	21.1 µM (inactive)	14.5 µM (inactive)	21.4 µM (inactive)	13.5 µM (inactive)
CC(C)(C)OC(=O)NCCC1SC2C=CC1C2 (stereo not given)	> 100 µM (inactive)	> 100 µM (inactive)	> 100 µM (inactive)	> 100 µM (inactive)	> 100 µM (inactive)	> 100 µM (inactive)	> 100 µM (inactive)	> 100 µM (inactive)	> 100 µM (inactive)	> 100 µM (inactive)	> 100 µM (inactive)	> 100 µM (inactive)	> 100 µM (inactive)	> 100 µM (inactive)	> 100 µM (inactive)	83.2 µM (inactive)	> 100 µM (inactive)	> 100 µM (inactive)	> 100 µM (inactive)	> 100 µM (inactive)
COc1cc(OCc2nc3ccccc3n3cccc23)cc(OC)c1OC	20.3 µM (inactive)	29.7 µM (inactive)	16.8 µM (inactive)	43.8 µM (inactive)	17.5 µM (inactive)	9.35 µM (inactive)	28.1 µM (inactive)	15.9 µM (inactive)	20.7 µM (inactive)	40.6 µM (inactive)	2.37 µM (inactive)	20.6 µM (inactive)	13.1 µM (inactive)	> 52 µM (inactive)	> 100 µM (inactive)	2.42 µM (inactive)	47 µM (inactive)	> 93.5 µM (inactive)	32.7 µM (inactive)	10.6 µM (inactive)
COC(=O)C1=C(C(=O)OC)C(C(=O)OC)C(C(=O)OC)C(C(=O)OC)(C(=O)OC)C(C(=O)OC)=C1C(=O)OC (stereo not given)	21.2 µM (inactive)	15.1 µM (inactive)	4.27 µM (inactive)	16.9 µM (inactive)	7.36 µM (inactive)	1.97 µM (inactive)	13.3 µM (inactive)	17.1 µM (inactive)	15.1 µM (inactive)	20.9 µM (inactive)	2.59 µM (inactive)	5.77 µM (inactive)	1.96 µM (inactive)	19.3 µM (inactive)	17.9 µM (inactive)	17.2 µM (inactive)	14.3 µM (inactive)	19.2 µM (inactive)	15.6 µM (inactive)	13.9 µM (inactive)
